Experimental data as given in patent US11529344B2, “EZH2 inhibitor combination therapies” (Pfizer Inc., priority 2017, dated 2022).

Columns and labels:
[1] = tested on: EZH2 (H3K27Me3 levels) in DMS114 SCLC cells containing wild-type EZH2; test: cells; settings: Homo sapiens, DMS-114, 72 h, read-out: H3K27Me3 IC50 ± SD (nM) (n)
Protocol: SCLC cell line DMS114 was obtained from American Type Culture Collection (American Type Culture Collection, ATCC CRL-2066) and cultured in Waymouth's Medium MB 752/1 (Gibco/Life Technologies Cat. 11220-035), plus 10% Fetal Bovine Serum (FBS) (Gibco/Life Technologies Cat. 10082-147) and 1% Pen/Strep. […] All cells were maintained in a humidified incubator at 37° C. with 5% carbon dioxide (CO2).
Cells were plated at 1500 cells per well in 96-well black, flat, clear-bottom plates (Falcon, BD-353219). The following day, compounds were added to the wells at 3-fold dilution with a final concentration range from 3 μM to 0.1 nM, leaving some cells empty for controls: “DMSO only (1st and 2nd antibody)” and “DMSO only (2nd antibody only)”. […] After 2 hours, the secondary antibody was removed, the plates were washed again 5 times in PBST for 5 minutes each and then fluorescent signal was detected on an Odyssey LiCoR instrument (focus length 3 mm; using both 800 nm (for secondary) and 700 nm filters together (for DRAQ5). IC50 values were calculated using a four-parameter fit with GraphPad Prism version 7.02 and arithmetic mean of all biological replicates was calculated.
EZH2 inhibitor activity was determined in the cells by measurement of the relative amount of cellular H3K27Me3 levels.

[2] = tested on: SLFN11 expression in SCLC cell lines; test: SLFN11 western blotting; type: cell-based; settings: 500 nM for 7 days, several SCLC cell lines
Protocol: SCLC cell lines were treated with 500 nM of Compound 1 in DMSO for 7 days and changes in SLFN11 protein levels were then assessed using western blotting. After drug treatment, cells were trypsized (adherent cells), harvested by centrifugation at 2000 rpm at room temperature, washed with PBS, followed by collection of cell pellets by centrifugation. Cell pellets were re-suspended in appropriate volume of RIPA buffer (Sigma; Catalogue #R0278; 100 ul per 5-10×10^5 cells), incubated on ice for 10-15 min, centrifuged at 12,000 g and 4° C. for 10 min and then supernatant was collected. 15 ug of total protein lysates was run on 4-12% NuPAGE™ Bis-Tris protein gel (NP0336Box) in 1×NuPAGE™ MOPS SDS Running Buffer (NP0001). Gels were run on ice at 80V for 20 minutes and then 150V for 60 minutes. […] The signal was detected using the ECL system (Thermo-34078 and -34096) and imaged on the ImageQuant LAS400 imager.
To understand the potential mechanisms responsible for EZH2i synergy observed with chemotherapy agents, we assessed the effects of Compound 1 treatment on SLFN11 expression, a sensitizer to DNA damaging agents. Several SCLC cell lines were treated with 500 nM of Compound 1 for 7 days and changes in SLFN11 protein levels were assessed using western blotting according to the methodology described above.

[3] = tested on: H3K27Me3 in DMS114 tumors; test: H3K27Me3 ELISA on histones of DMS114 xenograft tumors; type: in vivo, female NOD/SCID mice; settings: Mus musculus, DMS-114, 1320 h; 300 mg/kg BID, tumors harvested at Day 55; read-out: maximum inhibition of H3K27Me3 in tumor samples
Protocol: (§1) Extracts were aliquoted and stored at −20° C. (short term) or −80° C. (long term). […] Data was analyzed using GraphPad Prism version 7.02.
(§2) The in vivo activity of Compound 1 against EZH2 in the DMS114 SCLC xenograft model was determined by measurement of the relative amount of cellular H3K27Me3 and Me2 levels with ELISA using the tumor tissue samples harvested at Day 55 from the study described in Example 3 above.

[4] = tested on: H3K27Me2 in DMS114 tumors; test: H3K27Me2 ELISA on histones of DMS114 xenograft tumors; type: in vivo, female NOD/SCID mice; settings: Mus musculus, DMS-114, 1320 h; 300 mg/kg BID, tumors harvested at Day 55; read-out: maximum inhibition of H3K27Me2 in tumor samples
Protocol: as §1, §2

COc1cc(C)[nH]c(=O)c1CN1CCc2c(Cl)cc([C@H](OC)C3COC3)c(Cl)c2C1=O [Compound 1, 5,8-dichloro-2-[(4-methoxy-6-methyl-2-oxo-1,2-dihydro-pyridin-3-yl)methyl]-7-[(R)-methoxy(oxetan-3-yl)methyl]-3,4-dihydroisoquinolin-1(2H)-one]
IC50 [1]: 9.48 nM
SLFN11 protein expression [2]: strong induction of SLFN11 expression
inhibition at 300 mg/kg [3]: 96%
inhibition at 300 mg/kg [4]: 82%
